# Data from the NIST ThermoML archive (doi:10.1021/je060033f).
# ± gives the expanded uncertainty stated by the source.
# Assay: activity coefficient (dimensionless); of the first substance listed, at infinite dilution; xn = mol fraction of the nth substance listed
# Conditions: 323.15 K; 101 kPa; Liquid; Chromatography; x1 = 0
row,SMILES,activity coefficient
1,"Cc1ccccc1C [1,2-dimethylbenzene] + C=CC[n+]1ccn(CCCCCCCC)c1.[Br-]",2.39 ± 0.16
2,"Cc1ccccc1C [1,2-dimethylbenzene] + C=CC[n+]1ccn(CCCCCCCCCC)c1.[Br-]",2.34 ± 0.16
3,"Cc1ccccc1C [1,2-dimethylbenzene] + C=CC[n+]1ccn(CCCCCCCCCCCC)c1.[Br-]",1.66 ± 0.11
4,"Cc1ccccc1C [1,2-dimethylbenzene] + C=CCn1cc[n+](C)c1.[Br-]",8.98 ± 0.61
5,"Cc1ccccc1C [1,2-dimethylbenzene] + CCCCCCCCCCCC[n+]1ccn(CCCB(O)O)c1.[Br-]",1.78 ± 0.12
6,"Cc1ccccc1C [1,2-dimethylbenzene] + CCCCCCCCCC[n+]1ccn(CCCB(O)O)c1.[Br-]",1.89 ± 0.13
7,"Cc1ccccc1C [1,2-dimethylbenzene] + CCCCCCCC[n+]1ccn(CCCB(O)O)c1.[Br-]",3.11 ± 0.21
8,"Cc1ccccc1C [1,2-dimethylbenzene] + C[n+]1ccn(CCCB(O)O)c1.[Br-]",44 ± 3
9,"Cc1cccc(C)c1 [1,3-dimethylbenzene] + C=CC[n+]1ccn(CCCCCCCC)c1.[Br-]",2.73 ± 0.19
10,"Cc1cccc(C)c1 [1,3-dimethylbenzene] + C=CC[n+]1ccn(CCCCCCCCCC)c1.[Br-]",2.73 ± 0.19
11,"Cc1cccc(C)c1 [1,3-dimethylbenzene] + C=CC[n+]1ccn(CCCCCCCCCCCC)c1.[Br-]",1.85 ± 0.12
12,"Cc1cccc(C)c1 [1,3-dimethylbenzene] + C=CCn1cc[n+](C)c1.[Br-]",11.1 ± 0.76
13,"Cc1cccc(C)c1 [1,3-dimethylbenzene] + CCCCCCCCCCCC[n+]1ccn(CCCB(O)O)c1.[Br-]",1.98 ± 0.13
14,"Cc1cccc(C)c1 [1,3-dimethylbenzene] + CCCCCCCCCC[n+]1ccn(CCCB(O)O)c1.[Br-]",2.11 ± 0.14
15,"Cc1cccc(C)c1 [1,3-dimethylbenzene] + CCCCCCCC[n+]1ccn(CCCB(O)O)c1.[Br-]",3.57 ± 0.24
16,"Cc1cccc(C)c1 [1,3-dimethylbenzene] + C[n+]1ccn(CCCB(O)O)c1.[Br-]",48.1 ± 3.3
17,"C1COCCO1 [1,4-dioxane] + C=CC[n+]1ccn(CCCCCCCC)c1.[Br-]",1.52 ± 0.1
18,"C1COCCO1 [1,4-dioxane] + C=CC[n+]1ccn(CCCCCCCCCC)c1.[Br-]",1.39 ± 0.09
19,"C1COCCO1 [1,4-dioxane] + C=CC[n+]1ccn(CCCCCCCCCCCC)c1.[Br-]",1.3 ± 0.08
20,"C1COCCO1 [1,4-dioxane] + C=CCn1cc[n+](C)c1.[Br-]",1.59 ± 0.11
21,"C1COCCO1 [1,4-dioxane] + CCCCCCCCCCCC[n+]1ccn(CCCB(O)O)c1.[Br-]",1.32 ± 0.09
22,"C1COCCO1 [1,4-dioxane] + CCCCCCCCCC[n+]1ccn(CCCB(O)O)c1.[Br-]",1.38 ± 0.09

row,SMILES,activity coefficient
1,"C1COCCO1 [1,4-dioxane] + CCCCCCCC[n+]1ccn(CCCB(O)O)c1.[Br-]",1.78 ± 0.12
2,"C1COCCO1 [1,4-dioxane] + C[n+]1ccn(CCCB(O)O)c1.[Br-]",11.2 ± 0.77
3,C#CCCCCC [1-heptyne] + C=CC[n+]1ccn(CCCCCCCC)c1.[Br-],2.56 ± 0.17
4,C#CCCCCC [1-heptyne] + C=CC[n+]1ccn(CCCCCCCCCC)c1.[Br-],2.58 ± 0.18
5,C#CCCCCC [1-heptyne] + C=CC[n+]1ccn(CCCCCCCCCCCC)c1.[Br-],1.87 ± 0.13
6,C#CCCCCC [1-heptyne] + C=CCn1cc[n+](C)c1.[Br-],13.2 ± 0.9
7,C#CCCCCC [1-heptyne] + CCCCCCCCCCCC[n+]1ccn(CCCB(O)O)c1.[Br-],2.2 ± 0.15
8,C#CCCCCC [1-heptyne] + CCCCCCCCCC[n+]1ccn(CCCB(O)O)c1.[Br-],2.22 ± 0.15
9,C#CCCCCC [1-heptyne] + CCCCCCCC[n+]1ccn(CCCB(O)O)c1.[Br-],3.7 ± 0.25
10,C#CCCCCC [1-heptyne] + C[n+]1ccn(CCCB(O)O)c1.[Br-],42.9 ± 2.9
11,C#CCCCC [1-hexyne] + C=CC[n+]1ccn(CCCCCCCC)c1.[Br-],2.04 ± 0.14
12,C#CCCCC [1-hexyne] + C=CC[n+]1ccn(CCCCCCCCCC)c1.[Br-],2.02 ± 0.14
13,C#CCCCC [1-hexyne] + C=CC[n+]1ccn(CCCCCCCCCCCC)c1.[Br-],1.56 ± 0.1
14,C#CCCCC [1-hexyne] + C=CCn1cc[n+](C)c1.[Br-],8.27 ± 0.56
15,C#CCCCC [1-hexyne] + CCCCCCCCCCCC[n+]1ccn(CCCB(O)O)c1.[Br-],1.86 ± 0.13
16,C#CCCCC [1-hexyne] + CCCCCCCCCC[n+]1ccn(CCCB(O)O)c1.[Br-],1.77 ± 0.12
17,C#CCCCC [1-hexyne] + CCCCCCCC[n+]1ccn(CCCB(O)O)c1.[Br-],2.77 ± 0.19
18,CCC[N+](=O)[O-] [1-nitropropane] + C=CC[n+]1ccn(CCCCCCCC)c1.[Br-],1.23 ± 0.08
19,CCC[N+](=O)[O-] [1-nitropropane] + C=CC[n+]1ccn(CCCCCCCCCC)c1.[Br-],1.14 ± 0.07
20,CCC[N+](=O)[O-] [1-nitropropane] + C=CC[n+]1ccn(CCCCCCCCCCCC)c1.[Br-],1.12 ± 0.07
21,CCC[N+](=O)[O-] [1-nitropropane] + C=CCn1cc[n+](C)c1.[Br-],1.83 ± 0.12
22,CCC[N+](=O)[O-] [1-nitropropane] + CCCCCCCCCCCC[n+]1ccn(CCCB(O)O)c1.[Br-],1.51 ± 0.1

row,SMILES,activity coefficient
1,CCC[N+](=O)[O-] [1-nitropropane] + CCCCCCCCCC[n+]1ccn(CCCB(O)O)c1.[Br-],1.19 ± 0.08
2,CCC[N+](=O)[O-] [1-nitropropane] + CCCCCCCC[n+]1ccn(CCCB(O)O)c1.[Br-],1.58 ± 0.1
3,CCC[N+](=O)[O-] [1-nitropropane] + C[n+]1ccn(CCCB(O)O)c1.[Br-],15.8 ± 1.1
4,CC(C)CO [2-methyl-1-propanol] + C=CC[n+]1ccn(CCCCCCCC)c1.[Br-],0.29 ± 0.03
5,CC(C)CO [2-methyl-1-propanol] + C=CC[n+]1ccn(CCCCCCCCCC)c1.[Br-],0.29 ± 0.03
6,CC(C)CO [2-methyl-1-propanol] + C=CC[n+]1ccn(CCCCCCCCCCCC)c1.[Br-],0.23 ± 0.03
7,CC(C)CO [2-methyl-1-propanol] + C=CCn1cc[n+](C)c1.[Br-],0.33 ± 0.03
8,CC#N [acetonitrile] + C=CC[n+]1ccn(CCCCCCCC)c1.[Br-],0.98 ± 0.06
9,CC#N [acetonitrile] + C=CC[n+]1ccn(CCCCCCCCCC)c1.[Br-],0.89 ± 0.06
10,CC#N [acetonitrile] + C=CC[n+]1ccn(CCCCCCCCCCCC)c1.[Br-],0.86 ± 0.06
11,CC#N [acetonitrile] + C=CCn1cc[n+](C)c1.[Br-],1.04 ± 0.07
12,CC#N [acetonitrile] + CCCCCCCCCCCC[n+]1ccn(CCCB(O)O)c1.[Br-],1.16 ± 0.07
13,CC#N [acetonitrile] + CCCCCCCCCC[n+]1ccn(CCCB(O)O)c1.[Br-],0.95 ± 0.06
14,CC#N [acetonitrile] + CCCCCCCC[n+]1ccn(CCCB(O)O)c1.[Br-],1.28 ± 0.08
15,CC#N [acetonitrile] + C[n+]1ccn(CCCB(O)O)c1.[Br-],3.3 ± 0.22
16,c1ccccc1 [benzene] + C=CC[n+]1ccn(CCCCCCCC)c1.[Br-],1.4 ± 0.09
17,c1ccccc1 [benzene] + C=CC[n+]1ccn(CCCCCCCCCC)c1.[Br-],1.39 ± 0.09
18,c1ccccc1 [benzene] + C=CC[n+]1ccn(CCCCCCCCCCCC)c1.[Br-],1.08 ± 0.07
19,c1ccccc1 [benzene] + C=CCn1cc[n+](C)c1.[Br-],3.6 ± 0.25
20,c1ccccc1 [benzene] + CCCCCCCCCCCC[n+]1ccn(CCCB(O)O)c1.[Br-],1.21 ± 0.08
21,c1ccccc1 [benzene] + CCCCCCCCCC[n+]1ccn(CCCB(O)O)c1.[Br-],1.33 ± 0.09
22,c1ccccc1 [benzene] + CCCCCCCC[n+]1ccn(CCCB(O)O)c1.[Br-],1.84 ± 0.12

row,SMILES,activity coefficient
1,c1ccccc1 [benzene] + C[n+]1ccn(CCCB(O)O)c1.[Br-],18.1 ± 1.2
2,CCC(C)=O [butanone] + C=CC[n+]1ccn(CCCCCCCC)c1.[Br-],1.46 ± 0.1
3,CCC(C)=O [butanone] + C=CC[n+]1ccn(CCCCCCCCCC)c1.[Br-],1.48 ± 0.1
4,CCC(C)=O [butanone] + C=CC[n+]1ccn(CCCCCCCCCCCC)c1.[Br-],1.43 ± 0.09
5,CCC(C)=O [butanone] + C=CCn1cc[n+](C)c1.[Br-],2.68 ± 0.18
6,CCC(C)=O [butanone] + CCCCCCCCCCCC[n+]1ccn(CCCB(O)O)c1.[Br-],1.33 ± 0.09
7,CCC(C)=O [butanone] + CCCCCCCCCC[n+]1ccn(CCCB(O)O)c1.[Br-],1.59 ± 0.11
8,CCC(C)=O [butanone] + CCCCCCCC[n+]1ccn(CCCB(O)O)c1.[Br-],1.88 ± 0.13
9,CCC(C)=O [butanone] + C[n+]1ccn(CCCB(O)O)c1.[Br-],21.8 ± 1.5
10,C1CCCCC1 [cyclohexane] + C=CC[n+]1ccn(CCCCCCCC)c1.[Br-],5.66 ± 0.39
11,C1CCCCC1 [cyclohexane] + C=CC[n+]1ccn(CCCCCCCCCC)c1.[Br-],5.64 ± 0.38
12,C1CCCCC1 [cyclohexane] + C=CC[n+]1ccn(CCCCCCCCCCCC)c1.[Br-],3.12 ± 0.21
13,C1CCCCC1 [cyclohexane] + C=CCn1cc[n+](C)c1.[Br-],15.7 ± 1.1
14,C1CCCCC1 [cyclohexane] + CCCCCCCCCCCC[n+]1ccn(CCCB(O)O)c1.[Br-],3.25 ± 0.22
15,C1CCCCC1 [cyclohexane] + CCCCCCCCCC[n+]1ccn(CCCB(O)O)c1.[Br-],3.89 ± 0.26
16,C1CCCCC1 [cyclohexane] + CCCCCCCC[n+]1ccn(CCCB(O)O)c1.[Br-],8.15 ± 0.56
17,ClCCl [dichloromethane] + C=CC[n+]1ccn(CCCCCCCC)c1.[Br-],0.28 ± 0.03
18,ClCCl [dichloromethane] + C=CC[n+]1ccn(CCCCCCCCCC)c1.[Br-],0.27 ± 0.03
19,ClCCl [dichloromethane] + C=CC[n+]1ccn(CCCCCCCCCCCC)c1.[Br-],0.25 ± 0.03
